Test results as given in the NIST ThermoML archive (doi:10.1016/j.fluid.2012.11.013).

Details: Liquid, Vibrating tube method

CC(C)C(C)C [2,3-dimethylbutane]
mass density [kg/m3]
Details | 283.15 K | 288.15 K | 293.15 K | 298.15 K | 303.15 K | 308.15 K | 313.15 K | 318.15 K | 323.15 K | 328.15 K
100 kPa | 670.76 | 666.22 | 661.58 | 657 | 652.31 | 647.61 | 642.78 | 638.08 | 633.18 | 628.26
2000 kPa | 672.72 | 668.35 | 663.76 | 659.21 | 654.73 | 650.13 | 645.28 | 640.8 | 636.04 | 631.14
5000 kPa | 675.8 | 671.5 | 667.04 | 662.62 | 658.23 | 653.82 | 649.18 | 644.77 | 640.11 | 635.61
7000 kPa | 677.77 | 673.5 | 669.15 | 664.81 | 660.39 | 656.12 | 651.62 | 647.3 | 642.73 | 638.3
10000 kPa | 680.57 | 676.37 | 672.12 | 667.97 | 663.63 | 659.42 | 655.04 | 650.89 | 646.47 | 642.27
20000 kPa | 689.26 | 685.39 | 681.36 | 677.49 | 673.54 | 669.63 | 665.61 | 661.8 | 657.61 | 653.85
30000 kPa | 697.12 | 693.43 | 689.64 | 686.05 | 682.15 | 678.59 | 674.74 | 671.23 | 667.06 | 663.86
40000 kPa | 704.27 | 700.77 | 697.12 | 693.73 | 690.01 | 686.72 | 683.04 | 679.58 | 676.08 | 672.8
50000 kPa | 710.91 | 707.56 | 704.07 | 700.78 | 697.16 | 694.02 | 690.56 | 687.47 | 684.13 | 680.68
60000 kPa | 717.08 | 713.85 | 710.4 | 707.39 | 703.95 | 700.83 | 697.4 | 694.5 | 691.19 | 688.05
65000 kPa | 720.09 | 716.77 | 713.55 | 710.52 | 707.12 | 704.06 | 700.79 | 697.71 | 694.58 | 691.47

CCCC(C)C [2-methylpentane]
mass density [kg/m3]
Details | 283.15 K | 288.15 K | 293.15 K | 298.15 K | 303.15 K | 308.15 K | 313.15 K | 318.15 K | 323.15 K | 328.15 K
100 kPa | 662.38 | 657.8 | 653.28 | 648.63 | 643.96 | 639.25 | 634.49 | 629.65 | 624.76 | 619.82
2000 kPa | 664.49 | 659.95 | 655.38 | 651 | 646.27 | 641.65 | 637.11 | 632.32 | 627.48 | 622.75
5000 kPa | 667.45 | 663.16 | 658.76 | 654.32 | 649.83 | 645.36 | 640.96 | 636.32 | 631.78 | 627.22
7000 kPa | 669.44 | 665.17 | 660.81 | 656.61 | 652.12 | 647.77 | 643.31 | 638.86 | 634.39 | 629.87
10000 kPa | 672.23 | 668.05 | 663.8 | 659.71 | 655.36 | 651.1 | 646.93 | 642.49 | 638.24 | 633.86
20000 kPa | 680.99 | 677.13 | 673.11 | 669.38 | 665.3 | 661.38 | 657.45 | 653.46 | 649.56 | 645.47
30000 kPa | 689.02 | 685.21 | 681.56 | 677.93 | 673.98 | 670.38 | 666.76 | 663.07 | 659.4 | 655.55
40000 kPa | 696.18 | 692.59 | 689.05 | 685.62 | 682.03 | 678.4 | 675.03 | 671.49 | 667.99 | 664.47
50000 kPa | 702.82 | 699.4 | 695.95 | 692.66 | 689.27 | 685.81 | 682.68 | 679.17 | 675.91 | 672.49
60000 kPa | 708.98 | 705.61 | 702.39 | 699.21 | 695.84 | 692.62 | 689.53 | 686.27 | 683.16 | 679.93
65000 kPa | 711.97 | 708.71 | 705.49 | 702.34 | 699.14 | 695.97 | 692.86 | 689.7 | 686.56 | 683.41

CCC(C)CC [3-methylpentane]
mass density [kg/m3]
Details | 283.15 K | 288.15 K | 293.15 K | 298.15 K | 303.15 K | 308.15 K | 313.15 K | 318.15 K | 323.15 K | 328.15 K
100 kPa | 673.34 | 668.91 | 664.28 | 659.73 | 655.07 | 650.44 | 645.7 | 640.93 | 636.14 | 631.22
2000 kPa | 675.33 | 670.93 | 666.4 | 661.91 | 657.33 | 652.85 | 648.1 | 643.46 | 638.83 | 634.03
5000 kPa | 678.2 | 673.95 | 669.49 | 665.13 | 660.71 | 656.28 | 651.77 | 647.27 | 642.73 | 638.2
7000 kPa | 680.08 | 675.9 | 671.54 | 667.22 | 662.86 | 658.61 | 654.13 | 649.71 | 645.26 | 640.84
10000 kPa | 682.8 | 678.66 | 674.41 | 670.25 | 666 | 661.77 | 657.53 | 653.27 | 648.88 | 644.64
20000 kPa | 691.21 | 687.28 | 683.39 | 679.53 | 675.49 | 671.68 | 667.66 | 663.74 | 659.72 | 655.85
30000 kPa | 698.81 | 695.19 | 691.45 | 687.73 | 683.96 | 680.42 | 676.56 | 672.89 | 669.28 | 665.6
40000 kPa | 705.94 | 702.32 | 698.72 | 695.4 | 691.63 | 688.33 | 684.59 | 681.17 | 677.73 | 674.39
50000 kPa | 712.39 | 708.77 | 705.44 | 702.25 | 698.64 | 695.51 | 692.01 | 688.56 | 685.39 | 682.22
60000 kPa | 718.5 | 715.04 | 711.72 | 708.63 | 705.24 | 702.1 | 698.74 | 695.68 | 692.42 | 689.42
65000 kPa | 721.33 | 718.14 | 714.81 | 711.62 | 708.41 | 705.28 | 702.04 | 699.05 | 695.87 | 692.79

CCC(C)(C)C [2,2-dimethylbutane]
mass density [kg/m3]
Details | 283.15 K | 288.15 K | 293.15 K | 298.15 K | 303.15 K | 308.15 K | 313.15 K | 318.15 K | 323.15 K | 328.15 K
100 kPa | 658.57 | 653.96 | 649.25 | 644.46 | 639.75 | 634.86 | 630.04 | 625.06 | 620.03 | –
2000 kPa | 660.76 | 656.25 | 651.6 | 646.95 | 642.26 | 637.48 | 632.76 | 627.98 | 623.17 | 618.2
5000 kPa | 664.07 | 659.62 | 655.12 | 650.7 | 646.07 | 641.54 | 637.06 | 632.33 | 627.74 | 623.02
7000 kPa | 666.19 | 661.74 | 657.45 | 653.04 | 648.58 | 644.04 | 639.66 | 635.14 | 630.61 | 626.02
10000 kPa | 669.19 | 664.88 | 660.66 | 656.38 | 652.04 | 647.69 | 643.44 | 639.02 | 634.54 | 630.26
20000 kPa | 678.5 | 674.51 | 670.51 | 666.62 | 662.53 | 658.58 | 654.67 | 650.69 | 646.65 | 642.58
30000 kPa | 686.83 | 683.05 | 679.25 | 675.66 | 671.8 | 668.08 | 664.53 | 660.78 | 656.94 | 653.14
40000 kPa | 694.31 | 690.77 | 687.12 | 683.71 | 680.03 | 676.55 | 673.1 | 669.72 | 666.02 | 662.51
50000 kPa | 701.27 | 697.81 | 694.34 | 691.09 | 687.56 | 684.38 | 680.94 | 677.73 | 674.2 | 670.88
60000 kPa | 707.71 | 704.32 | 701.07 | 697.88 | 694.57 | 691.41 | 688.22 | 685.05 | 681.7 | 678.64
65000 kPa | 710.76 | 707.61 | 704.25 | 701.14 | 697.92 | 695.23 | 691.61 | 688.58 | 685.35 | 682.59
